Laboratory results as given in ChEMBL document CHEMBL1759985, “In vitro anticancer activity and evaluation of DNA duplex binding affinity of phenyl-substituted indoloquinolines” (Bioorg Med Chem Lett, 2011).
Active and inactive are the calls of the source. No cut-off for these calls is given here.

How the values were obtained:
[1] = system: Nucleic Acid; experiment: Binding affinity to duplex DG DNA in 0.02 M cacodylate buffer assessed as melting temperature at 10 uM at pH 7 by UV spectrophotometer analysis in presence of 0.1 M sodium chloride; assay type: nucleic-acid assay
[2] = system: DAN-G; experiment: Cytotoxicity against human DAN-G cells after 92 hrs by microtiter assay; assay type: functional, cell-based
[3] = system: Nucleic Acid; experiment: Binding affinity to duplex DM DNA in 0.02 M cacodylate buffer assessed as change in melting temperature at 10 uM at pH 7 by UV spectrophotometer analysis; assay type: nucleic-acid assay
[4] = Cytotoxicity against human LCLC-103H cells after 92 hrs by microtiter assay; assay type: functional, cell-based
[5] = system: Nucleic Acid; experiment: Binding affinity to duplex DA DNA in 0.02 M cacodylate buffer assessed as melting temperature at 10 uM at pH 7 by UV spectrophotometer analysis in presence of 0.1 M sodium chloride; assay type: nucleic-acid assay
[6] = system: A-427; experiment: Cytotoxicity against human A427 cells after 92 hrs by microtiter assay; assay type: functional, cell-based; conditions: A-427, 92 h
[7] = system: Nucleic Acid; experiment: Binding affinity to duplex DM DNA in 0.02 M cacodylate buffer assessed as melting temperature at 10 uM at pH 7 by UV spectrophotometer analysis in presence of 0.1 M sodium chloride; assay type: nucleic-acid assay
[8] = system: Nucleic Acid; experiment: Binding affinity to duplex DG DNA in 0.02 M cacodylate buffer assessed as melting temperature at 10 uM at pH 7 by UV spectrophotometer analysis; assay type: nucleic-acid assay
[9] = system: Nucleic Acid; experiment: Binding affinity to duplex DA DNA in 0.02 M cacodylate buffer assessed as change in melting temperature at 10 uM at pH 7 by UV spectrophotometer analysis; assay type: nucleic-acid assay
[10] = system: Nucleic Acid; experiment: Binding affinity to duplex DA DNA in 0.02 M cacodylate buffer assessed as change in melting temperature at 10 uM at pH 7 by UV spectrophotometer analysis in presence of 0.1 M sodium chloride; assay type: nucleic-acid assay
[11] = system: Nucleic Acid; experiment: Binding affinity to duplex DM DNA in 0.02 M cacodylate buffer assessed as melting temperature at 10 uM at pH 7 by UV spectrophotometer analysis; assay type: nucleic-acid assay
[12] = system: 5637; experiment: Cytotoxicity against human 5637 cells assessed after 92 hrs by microtiter assay; assay type: functional, cell-based; conditions: Homo sapiens, 5637, 92 h
[13] = system: RT-4; experiment: Cytotoxicity against human RT4 cells after 92 hrs by microtiter assay; assay type: functional, cell-based; conditions: RT-4, 92 h
[14] = system: Nucleic Acid; experiment: Binding affinity to duplex DG DNA in 0.02 M cacodylate buffer assessed as change in melting temperature at 10 uM at pH 7 by UV spectrophotometer analysis in presence of 0.1 M sodium chloride; assay type: nucleic-acid assay
[15] = system: Nucleic Acid; experiment: Binding affinity to duplex DA DNA in 0.02 M cacodylate buffer assessed as melting temperature at 10 uM at pH 7 by UV spectrophotometer analysis; assay type: nucleic-acid assay
[16] = system: MCF7; experiment: Cytotoxicity against human MCF7 cells after 92 hrs by microtiter assay; assay type: functional, cell-based; conditions: MCF7, 92 h
[17] = system: Nucleic Acid; experiment: Binding affinity to duplex DM DNA in 0.02 M cacodylate buffer assessed as change in melting temperature at 10 uM at pH 7 by UV spectrophotometer analysis in presence of 0.1 M sodium chloride; assay type: nucleic-acid assay
[18] = system: Nucleic Acid; experiment: Binding affinity to duplex DG DNA in 0.02 M cacodylate buffer assessed as change in melting temperature at 10 uM at pH 7 by UV spectrophotometer analysis; assay type: nucleic-acid assay
[19] = system: Nucleic Acid; experiment: Binding affinity to duplex DG DNA at 0.75 uM by fluorescence emission spectral analysis; assay type: nucleic-acid assay
[20] = system: Nucleic Acid; experiment: Binding affinity to duplex DG DNA assessed as DNA intercalation by circular dichroism spectra analysis; assay type: nucleic-acid assay
[21] = system: Nucleic Acid; experiment: Displacement of ethidium bromide from duplex DG DNA after 5 mins; assay type: nucleic-acid assay

In the case of Cc1cccc2c(-c3ccc(C(=O)NCCN(C)C)cc3)c3[nH]c4c(C)cccc4c3nc12, the Tm [1] is reported as 51.6 °C, the IC50 [2] is reported as 2.6 µM and the ΔTm [3] is reported as 1 °C. For the same compound, the IC50 [4] was 3.7 µM, the Tm [5] was 45.1 °C and the IC50 [6] was 3.2 µM. For the same compound, the Tm [7] was 40.3 °C, the Tm [8] was 41.5 °C and the ΔTm [9] was 1.5 °C. It also gave a ΔTm [10] of 0.3 °C, a Tm [11] of 30.7 °C and an IC50 [12] of 3.2 µM. The IC50 [13] was 4.2 µM, the ΔTm [14] was -0.9 °C and the Tm [15] was 34.3 °C. For the same compound, the IC50 [16] was 3 µM, the ΔTm [17] was 0.2 °C and the ΔTm [18] was 0.8 °C.

With COC(=O)c1ccc(-c2c3cccc(C)c3nc3c2[nH]c2c(C)cccc23)cc1 the IC50 [2] was > 20 µM, the IC50 [4] was > 20 µM and the IC50 [6] was > 20 µM. For the same compound, the IC50 [12] was > 20 µM, the IC50 [13] was > 20 µM and the IC50 [16] was 13.8 µM.

In the case of COC(=O)c1ccc(-c2c3cccc(OC)c3nc3c2[nH]c2c(OC)cccc23)cc1, the IC50 [2] is reported as > 20 µM, the IC50 [4] is reported as > 20 µM and the IC50 [6] is reported as 16.6 µM. For the same compound, the IC50 [12] was 11 µM, the IC50 [13] was > 20 µM and the IC50 [16] was > 20 µM.

Work on COc1cccc2c(-c3ccc(C(=O)NCCN(C)C)cc3)c3[nH]c4c(OC)cccc4c3nc12 yielded a Tm [1] of 52 °C, an IC50 [2] of 3.6 µM and a ΔTm [3] of 3.1 °C. The Activity [19] was “Active”, the IC50 [4] was 3.2 µM and the Activity [20] was “Active”. The Tm [5] was 45.3 °C, the IC50 [6] was 1.7 µM and the Tm [7] was 40.6 °C. It also gave a Tm [8] of 42.4 °C, a ΔTm [9] of 2.5 °C and a ΔTm [10] of 0.5 °C. The Tm [11] was 32.8 °C, the IC50 [12] was 2.1 µM and the IC50 [13] was 3.6 µM. It also gave a ΔTm [14] of -0.5 °C, a Tm [15] of 35.3 °C and an IC50 [16] of 2.9 µM. For the same compound, the ΔTm [17] was 0.5 °C, the C50 [21] was 93 µM and the ΔTm [18] was 1.7 °C.
